Counter-ions that a name gives are not always drawn. Like-named read-outs stand apart in the source and are kept apart here.
What was measured:
[1] = assay type: physicochemical; conditions: 25 ± 2° C./60 ± 5% RH
[2] = Comparative stability profile of docetaxel in solution at 35° C. with and without aluminum sulphate; assay type: physicochemical; conditions: for Epi-Docetaxel / Docetaxel: solution at 35° C., trihydrate; for Epi-Docetaxel: 360 min (6 hours); for Docetaxel: 360 min
Experimental: The docetaxel solution prepared according to present invention had 0.19% of epi-docetaxel after 6 hours.

[3] = as above; assay type: physicochemical

Structure (SMILES)	7-Epi-docetaxel ([1]; 1 Month) [%]	10-Deacetyl baccatin III ([1]; 1 Month) [%]	Any individual unspecified unidentified impurity ([1]; 1 Month) [%]	Epi-Docetaxel [2] [%]	Docetaxel [2] [%]	Docetaxel ([3]; 30 min, trihydrate) [%]	Epi-Docetaxel ([3]; 30 min, trihydrate) [%]	Docetaxel ([3]; 60 min, trihydrate) [%]	Epi-Docetaxel ([3]; 60 min, trihydrate) [%]	Docetaxel ([3]; Initial) [%]	Epi-Docetaxel ([3]; Initial) [%]	other results
CC(=O)O[C@@]12CO[C@@H]1C[C@H](O)[C@@]1(C)C(=O)[C@H](O)C3=C(C)[C@@H](OC(=O)[C@H](O)[C@@H](NC(=O)OC(C)(C)C)c4ccccc4)C[C@@](O)([C@@H](OC(=O)c4ccccc4)[C@H]21)C3(C)C [Without potassium aluminum sulfate, docetaxel]	0.18	0.07	0.07	–	–	–	–	–	–	–	–	7-Epi-10-deacetyl baccatin III ([1]; 1 Month): 0.08%; 7-Epi-10-oxo-10-deacetyl baccatin III ([1]; 1 Month): 0.01%; 7-Epi-10-oxo-Docetaxel ([1]; 1 Month): 0.01%; Total impurities ([1]; 1 Month): 0.58%; Total impurities ([1]; 1 Month, listed as docetaxel prepared without using potassium aluminum sulfate): 0.58%
CC(=O)O[C@@]12CO[C@@H]1C[C@H](O)[C@@]1(C)C(=O)[C@H](O)C3=C(C)[C@@H](OC(=O)[C@H](O)[C@@H](NC(=O)OC(C)(C)C)c4ccccc4)C[C@@](O)([C@@H](OC(=O)c4ccccc4)[C@H]21)C3(C)C.O.O.O [Example 1, Docetaxel trihydrate]	–	–	–	0.19	99.38	99.62	0.11	99.50	0.12	99.68	0.11	reduction in formation of the epi-isomer degradation product ([2]; compared to a solution prepared without addition of a metal salt): almost a five-fold reduction; Epi-Docetaxel ([3]; 360 min (6 hours), listed as docetaxel solution prepared according to present invention, trihydrate): 0.19%
CC(=O)O[C@@]12CO[C@@H]1C[C@H](O)[C@@]1(C)C(=O)[C@H](O)C3=C(C)[C@@H](OC(=O)[C@H](O)[C@@H](NC(=O)OC(C)(C)C)c4ccccc4)C[C@@](O)([C@@H](OC(=O)c4ccccc4)[C@H]21)C3(C)C.O.O.O [Example 6, Docetaxel trihydrate]	–	–	–	0.86	98.81	99.51	0.23	98.95	0.34	99.68	0.11	Epi-Docetaxel ([3]; 360 min (6 hours), listed as docetaxel solution prepared without using aluminum sulfate, trihydrate): 0.86%
CC(=O)O[C@@]12CO[C@@H]1C[C@H](O)[C@@]1(C)C(=O)[C@H](O)C3=C(C)[C@@H](OC(=O)[C@H](O)[C@@H](NC(=O)OC(C)(C)C)c4ccccc4)C[C@@](O)([C@@H](OC(=O)c4ccccc4)[C@H]21)C3(C)C.O.O.O [Example 2, Docetaxel trihydrate]	0.022	0.01	0.076	–	–	–	–	–	–	–	–	Total impurities ([1]; 1 Month, listed as docetaxel preparing by a process of the present invention, trihydrate): 0.27%; Total impurities ([1]; 1 Month, trihydrate): 0.27%; 7-Epi-docetaxel ([1]; 2 Month): 0.044%; 10-Deacetyl baccatin III ([1]; 2 Month): 0.01%; Any individual unspecified unidentified impurity ([1]; 2 Month): 0.083%; Total impurities ([1]; 2 Month): 0.27%; 7-Epi-docetaxel ([1]; Initial): 0.02%; Any individual unspecified unidentified impurity ([1]; Initial): 0.07%; Total impurities ([1]; Initial): 0.25%

Reference: patent publication US8686165B2, “Process for preparation of taxane derivatives” (Emcure Pharmaceuticals Limited, priority 2009, dated 2014)
